These results are taken from patent US11203588B2, “Anti-cancer and splice modulating compounds and methods” (The Regents of the University of California, priority 2016, dated 2021).

Values after ≈ are worked out from the molar mass of the structure shown.

Series [1] concerns alternate splicing of MCL1 and BCL-X in CLL-B cells. Nature of the series: RT-PCR analysis of alternate splicing (AS). The series is classed as cell-based, human (CLL patients). The settings on record: for alternate splicing (AS) events: H2A as unspliced loading control.
In series [2] the test system is intron retention in DNAJB1, ARF4, PRPF4, RIOK3, SF3A1, and U2AF2 in primary CLL-B cells. Briefly: RT-PCR / qRT-PCR analysis of intron retention (IR). The series is classed as cell-based. Conditions: six genes, 4 h treatment, RNU6A and GAPDH as controls. As to the method:
CLL-B (5×10^6 cells/well) were treated with a given dose of compound from a DMSO stock solution over 4 h. RNA isolation and cDNA preparation, PCR reaction was performed in 20 μL of reaction volume as described previously.^S3 PCR conditions give by incubation at 94° C. for 3 min; 35 cycles of 94° C. for 30 s, 55-60° C. (annealing temperature: 55° C. for GAPDH, 53.6° C. for RNU6A, 58° C. for DNAJB1, 54° C. for SF3A1, 55° C. for PRPF4, 55° C. for ARF4, and 55° C. for U2AF2) for 30 s, and 72° C. for 1 min; followed by 72° C. for 5 min. PCR products were separated on a 2% agarose gel and stained with ethidium bromide.
cDNA was prepared using identical methods as used for RT-PCR analysis. The amount of unspliced RNA for different genes was determined using Power SYBR Green PCR master mix (Applied Biosystems) by qRT-PCR using specific primers designed for detection of the intron of each gene (Table 2). The qPCR was performed using 5 pM of each primer on 20 ng of the obtained cDNA. PCR conditions were as follows: one cycle of 50° C. for 2 min (UDG Incubation), one cycle of 95° C. for 10 min (UDG Inactivation), followed by 95° C. for 15 sec; 60° C. for 30 s for 40 cycles and adding a step for dissociation using a 7900 HT Fast Real Time PCR System (Applied Biosystems). Unspliced RNA levels were calculated using 2-ΔΔCT method.^S4 GAPDH was used as a control for normalization.
(In general: Quantitative PCR measures a nucleic acid by following its amplification.)

The next series concerns primary CLL-B cells. Nature of the series: In vitro cytotoxicity, specific induced apoptosis (% SIA), flow cytometry. The series is classed as cell-based, human (CLL patients). Conditions: for IC50: 48 h. The source says: Peripheral blood mononuclear cells (PBMC) from CLL patients were obtained from the CLL Research Consortium (CRC) tissue bank. This protocol was approved by the institutional review board (IRB) of the University of California, San Diego. Blood samples were taken from two CLL patients after written informed consent for blood sample collection and confirmation of diagnosis for CLL diseases, The PBMCs were separated from heparinized venous blood by density gradient centrifugation using Ficoll-Hypaque media (GE Healthcare). The samples with >95% positively for leukemic B cells was confirmed by staining for CD5 and CD19 followed by assessment using flow cytometry. CLL-B cells were maintained in RPMI 1640 medium supplemented with 10% FBS, 2 mM L-glutamine, and 100 U/mL of penicillin and 100 μg/mL of streptomycin at 37° C. in an atmosphere containing 5% CO2.
The CLL-B cells (3×10^5 cells) were treated for 48 h with 10, 100, 300, and 1000 nM of 1a, 1b, 2 or 19 at 37° C. in an atmosphere containing 5% CO2. Fludarabine (F-ara-A) dosed at 10 μM was used as a control. The cells were centrifuged and labeled with CD19/CD5/DiOC6 and subjected to flow cytometry. The data was analyzed using FlowJo software. […] The dose-response curves were plotted to determine IC50 values using the GraphPad Prism version 6.0c software.
In general terms: In flow cytometry, cells or beads pass a laser one at a time.

Series [3] can be described thus: Solubility by capillary NMR with solvent 13C-satellites (QSCS). The series is classed as physicochemical. The source says:
(§1) Early studies indicate that 2 was more soluble and stable in aqueous buffers than FD-895 (1a).

Series [4] is described as follows: Stability in aqueous buffer by NMR monitoring. The series is classed as physicochemical. Conditions: after 744 h (1 month), D2O/DMSO-d6 (10:1) at 37° C.
Source text: as §1

The mark [5] stands for this setting: primary CLL-B cells from two CLL patients.

With `CC[C@H](OC)[C@@H](C)/C=C/[C@H](O)[C@@H](C)/C=C/C=C(\C)[C@H]1O[C@H](OC)[C@H](OC)[C@@H](OC)[C@@H]1OC` [Alkene 19, (2E,4E,6S,7S,8E,10S,11S)-11-methoxy-6,10-dimethyl-2-((2R,3R,4S,5R,6S)-3,4,5,6-tetramethoxytetrahydro-2H-pyran-2-yl)trideca-2,4,8-trien-7-ol], in series [1], the “alternate splicing (AS) events” value is “did not induce AS”. For the same compound, the “splice modulation via intron retention (IR)” value in series [2] is “inactive for all six genes”. Besides, the half-inhibitory concentration (IC50) with primary CLL-B cells (Homo sapiens, primary CLL-B cells, both sets of cells) was > 50000 nM.
Turning to `CCC(OC)C(C)C1OC1C(O)C(C)/C=C/C=C(\C)C1OC(=O)CC(O)CCC(C)(O)C(OC(C)=O)/C=C/C1C` (stereo not drawn) [Compound 1a, FD-895, reference compound], the “MCL1 long (anti-apoptotic) and short (pro-apoptotic) isoform expression” value (“MCL1 long (anti-apoptotic) and short” below) in series [1] was “decrease in the long (anti-apoptotic) form and increased the expression of short (pro-apoptotic) form of MCL1”. Besides, in series [3] (D2O/DMSO-d6 (10:1) at 23° C.), the “solubility (soluble up to)” value was 15 ± 5 mM (≈ 8.5 mg/mL). In addition, in the series on primary CLL-B cells (setting [5]), it took 54.1 ± 7.5 nM to reach half-maximal inhibition (IC50).
For `CC[C@H](OC)[C@@H](C)[C@H]1O[C@@H]1[C@H](O)[C@@H](C)/C=C/C=C(\C)[C@H]1O[C@H](OC)[C@H](OC)[C@@H](OC)[C@@H]1OC` [Compound 2, (1R,2S,3E,5E)-1-((2R,3R)-3-((2R,3S)-3-methoxypentan-2-yl)oxiran-2-yl)-2-methyl-6-((2R,3R,4S,5R,6S)-3,4,5,6-tetramethoxytetrahydro-2H-pyran-2-yl)hepta-3,5-dien-1-ol], in series [1], the “MCL1 long (anti-apoptotic) and short” value was “decrease in the long (anti-apoptotic) form and increased the expression of short (pro-apoptotic) form of MCL1”; the “alternate splicing (AS) events” value is recorded as “induced alternate splicing (AS) events”. The “splice modulation via intron retention (IR)” value in series [2] is listed as “complementary splice modulation in all six genes”. For the same compound, the “decomposition (stability)” value in series [4] is on record as “no signs of decomposition”. In series [3] (23 °C, aqueous with cosolvent or surfactant or cyclodextrin), this compound registered a solubility of 95 ± 5 mM (≈ 44.9 mg/mL). The half-inhibitory concentration (IC50) in the series on primary CLL-B cells (Homo sapiens, primary CLL-B cells from two CLL patients) came to 153 ± 11.8 nM. The “loss of activity when compared to FD-895 (1a)” value in the series with primary CLL-B cells (primary CLL-B cells, IC50 based) is listed as ~3 fold.
On to “pladienolide B [Compound 1b, reference compound]”, for which the “MCL1 long (anti-apoptotic) and short” value in series [1] was “decrease in the long (anti-apoptotic) form and increased the expression of short (pro-apoptotic) form of MCL1”. In addition, in the series on primary CLL-B cells (setting [5]), the IC50 was determined as 84.4 ± 1.2 nM.

What is called IC50 is the concentration needed to halve the response being measured. Read a low IC50 as greater potency in that assay. What is called solubility is the dissolved amount per volume that the medium holds. A higher solubility goes with a readily soluble substance.
